Measurements taken from patent US11981671B2, “Bicyclic pyrazolyl amines as CDK2 inhibitors” (Incyte Corporation, priority 2021, dated 2024).

These compounds were tested against CDK2/Cyclin E1 (Homo sapiens (Human), UniProt P24941) (assay: CDK2/Cyclin E1 HTRF enzyme activity assay). Conditions: 1 mM ATP; CDK2/Cyclin E1 0.25 nM; 60 minutes at room temperature.
Assay type: biochemical
Experimental: Example A. CDK2/Cyclin E1 HTRF Enzyme Activity Assay
CDK2/Cyclin E1 enzyme activity assays utilize full-length human CDK2 co-expressed as N-terminal GST-tagged protein with FLAG-Cyclin E1 in a baculovirus expression system (Carna Product Number 04-165). Assays were conducted in white 384-well polystyrene plates in a final reaction volume of 8 μL. CDK2/Cyclin E1 (0.25 nM) was incubated with the compounds of the Examples (40 nL serially diluted in DMSO) in the presence of ATP (50 μM or 1 mM) and 50 nM ULight™-labeled eIF4E-binding protein 1 (THR37/46) peptide (PerkinElmer) in assay buffer (containing 50 mM HEPES pH 7.5, 1 mM EGTA, 10 mM MgCl2, 2 mM DTT, 0.05 mg/mL BSA, and 0.01% Tween 20) for 60 minutes at room temperature. The reactions were stopped by the addition of EDTA and Europium-labeled anti-phospho-4E-BP1 antibody (PerkinElmer), for a final concentration of 15 mM and 1.5 nM, respectively. HTRF signals were read after 1 hour at room temperature on a PHERAstar FS plate reader (BMG Labtech). Data was analyzed with IDBS XLFit and GraphPad Prism 5.0 software using a three or four parameter dose response curve to determine IC50 for each compound.

IC50, ≤ 10 nM:
Cc1nccc(Nc2nc3c(-c4ccc5c(c4)oc(=O)n5C)c(-c4cn[nH]c4)ccn3n2)c1C [Example 1, 6-(2-((2,3-Dimethylpyridin-4-yl)amino)-7-(1H-pyrazol-4-yl)-[1,2,4]triazolo[1,5-a]pyridin-8-yl)-3-methylbenzo[d]oxazol-2(3H)-one]
Cc1nccc(Nc2nc3c(-c4cc(C#N)ccc4F)c(-c4cn[nH]c4)ccn3n2)c1C [Example 2, 3-(2-((2,3-Dimethylpyridin-4-yl)amino)-7-(1H-pyrazol-4-yl)-[1,2,4]triazolo[1,5-a]pyridin-8-yl)-4-fluorobenzonitrile]
Cc1nccc(Nc2nc3c(-c4ccc5c(cnn5C)c4)c(-c4cn[nH]c4)ccn3n2)c1C [Example 3, N-(2,3-Dimethylpyridin-4-yl)-8-(1-methyl-1H-indazol-5-yl)-7-(1H-pyrazol-4-yl)-[1,2,4]triazolo[1,5-a]pyridin-2-amine]
Cc1nccc(Nc2nc3c(-c4ccc(CO)cc4F)c(-c4cn[nH]c4)ccn3n2)c1C [Example 4, (4-(2-((2,3-Dimethylpyridin-4-yl)amino)-7-(1H-pyrazol-4-yl)-[1,2,4]triazolo[1,5-a]pyridin-8-yl)-3-fluorophenyl)methanol]
Cc1nccc(Nc2nc3c(-c4ccc(CN5CCCC5)c(F)c4)c(-c4cn[nH]c4)ccn3n2)c1C [Example 5, N-(2,3-Dimethylpyridin-4-yl)-8-(3-fluoro-4-(pyrrolidin-1-ylmethyl)phenyl)-7-(1H-pyrazol-4-yl)-[1,2,4]triazolo[1,5-a]pyridin-2-amine]
Cc1cc(-c2c(-c3cn[nH]c3)ccn3nc(Nc4ccnc(C)c4C)nc23)c(F)cn1 [Example 6, N-(2,3-Dimethylpyridin-4-yl)-8-(5-fluoro-2-methylpyridin-4-yl)-7-(1H-pyrazol-4-yl)-[1,2,4]triazolo[1,5-a]pyridin-2-amine]
Cc1cc(-c2c(-c3cn[nH]c3)ccn3nc(Nc4ccnc5ccccc45)nc23)c(F)cc1C#N [Example 7, 4-(7-(1H-Pyrazol-4-yl)-2-(quinolin-4-ylamino)-[1,2,4]triazolo[1,5-a]pyridin-8-yl)-5-fluoro-2-methylbenzonitrile]
Cc1c(Nc2nc3c(OC(C)C)c(-c4cn[nH]c4)ncn3n2)ccnc1CN(C)C [Example 8, N-(2-((Dimethylamino)methyl)-3-methylpyridin-4-yl)-8-isopropoxy-7-(1H-pyrazol-4-yl)-[1,2,4]triazolo[1,5-c]pyrimidin-2-amine]
Cc1c(Nc2nc3c(OC(C)C)c(-c4cn[nH]c4)ncn3n2)ccnc1CO [Example 9, (4-((8-Isopropoxy-7-(1H-pyrazol-4-yl)-[1,2,4]triazolo[1,5-c]pyrimidin-2-yl)amino)-3-methylpyridin-2-yl)methanol]
Cc1nccc(Nc2nc3c(OC(C)C)c(-c4cn[nH]c4)ncn3n2)c1C [Example 10, N-(2,3-Dimethylpyridin-4-yl)-8-isopropoxy-7-(1H-pyrazol-4-yl)-[1,2,4]triazolo[1,5-c]pyrimidin-2-amine]
Cc1c(Nc2nc3c(OC(C)C)c(-c4cn[nH]c4)ncn3n2)ccc2nccn12 [Example 11, 8-Isopropoxy-N-(5-methylimidazo[1,2-a]pyridin-6-yl)-7-(1H-pyrazol-4-yl)-[1,2,4]triazolo[1,5-c]pyrimidin-2-amine]
CC(C)Oc1c(-c2cn[nH]c2)ncn2nc(Nc3ccc(S(C)(=O)=O)cc3F)nc12 [Example 12, N-(2-Fluoro-4-(methylsulfonyl)phenyl)-8-isopropoxy-7-(1H-pyrazol-4-yl)-[1,2,4]triazolo[1,5-c]pyrimidin-2-amine]
